Here are results for four compounds from US8436039B2, “Inhibitors of the ATB(0,+) transporter and uses thereof” (Georgia Health Sciences University Research Institute, Inc., priority 2008, dated 2013).

One assay addresses T1, mouse ATB^0,+ (Mus musculus, UniProt Q9JMA9).
T1 sequence (Q9JMA9 1-638): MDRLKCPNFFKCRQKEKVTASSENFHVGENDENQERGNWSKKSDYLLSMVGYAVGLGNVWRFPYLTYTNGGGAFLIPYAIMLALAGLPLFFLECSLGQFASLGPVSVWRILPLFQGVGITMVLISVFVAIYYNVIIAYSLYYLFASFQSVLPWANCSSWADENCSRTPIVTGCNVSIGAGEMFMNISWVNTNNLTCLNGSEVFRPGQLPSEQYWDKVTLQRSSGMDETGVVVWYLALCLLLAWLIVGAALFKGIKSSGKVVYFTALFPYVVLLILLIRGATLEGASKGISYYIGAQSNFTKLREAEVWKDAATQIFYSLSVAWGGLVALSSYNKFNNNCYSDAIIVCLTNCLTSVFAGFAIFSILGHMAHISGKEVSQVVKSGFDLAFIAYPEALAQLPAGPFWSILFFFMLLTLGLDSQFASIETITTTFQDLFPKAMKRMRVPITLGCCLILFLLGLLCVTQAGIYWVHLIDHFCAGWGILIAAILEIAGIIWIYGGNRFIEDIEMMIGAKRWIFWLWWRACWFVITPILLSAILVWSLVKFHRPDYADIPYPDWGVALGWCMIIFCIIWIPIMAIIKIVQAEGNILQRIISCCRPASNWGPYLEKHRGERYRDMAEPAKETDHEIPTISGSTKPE
In words: Inhibition of ATB^0,+-mediated glycine uptake in HRPE cells expressing cloned mouse ATB^0,+. It is filed as cell-based. The settings on record: for inhibition of ATB^0,+-specific glycine uptake: glycine 10 μM, inhibitor 1 mM, 30 min, NaCl, HRPE cells.

Another assay deals with T2, ATB^0,+ in MCF7 cells (Homo sapiens, UniProt Q9UN76).
T2 construct: host or cells: MCF7
T2 sequence (Q9UN76 1-642): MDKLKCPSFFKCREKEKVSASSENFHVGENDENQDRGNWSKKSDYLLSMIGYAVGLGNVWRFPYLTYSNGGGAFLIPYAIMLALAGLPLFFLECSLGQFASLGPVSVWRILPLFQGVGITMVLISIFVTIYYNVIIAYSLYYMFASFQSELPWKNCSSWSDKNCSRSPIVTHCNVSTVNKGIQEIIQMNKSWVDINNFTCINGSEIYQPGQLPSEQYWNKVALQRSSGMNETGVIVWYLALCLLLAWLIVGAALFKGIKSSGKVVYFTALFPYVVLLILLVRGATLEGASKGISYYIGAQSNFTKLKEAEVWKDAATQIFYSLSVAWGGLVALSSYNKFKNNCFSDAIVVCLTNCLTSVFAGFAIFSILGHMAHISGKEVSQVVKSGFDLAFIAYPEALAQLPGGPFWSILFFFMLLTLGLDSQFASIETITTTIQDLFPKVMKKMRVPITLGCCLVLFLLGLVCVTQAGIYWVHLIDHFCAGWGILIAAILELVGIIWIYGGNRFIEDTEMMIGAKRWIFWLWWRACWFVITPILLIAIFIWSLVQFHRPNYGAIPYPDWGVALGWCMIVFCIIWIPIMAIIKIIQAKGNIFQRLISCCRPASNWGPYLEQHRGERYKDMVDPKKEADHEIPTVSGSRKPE
In words: D-serine uptake in MCF7 cells (constitutively expressed ATB^0,+). The class given is cell-based. The conditions noted are these: for IC50: D-serine 5 μM, NaCl, read-out: IC50 for inhibition of D-serine uptake. As to the method:
Cells were seeded and grown in 24-well culture plates to confluency and used for uptake measurements. Radiolabelled glycine or D-serine was used as the substrate to determine the transport function of ATB^0,+. Uptake measurements were routinely made in an NaCl-containing buffer (25 mM Hepes/Tris buffer, pH 7.4, 140 mM NaCl, 5.4 mM KCl, 1.8 mM CaCl2, 0.8 mM MgSO4 and 5 mM glucose). Ion dependence of the transport process was evaluated by studying the uptake activity in buffers of varying compositions. NaCl in the uptake buffer was replaced iso-osmotically with NMDG (N-methyl-D-glucamine) chloride to prepare an Na^+-free buffer, and with sodium gluconate to prepare a Cl^−-free buffer. Linear uptake rates were determined by employing a 10 min incubation period, based on time course experiments. Na^+-activation kinetics was analysed by studying the uptake rates in the presence of varying concentrations of Na^+ (2.5-140 mM) in the uptake buffer with Cl^− concentration kept constant at 140 mM. This was done by replacing NaCl with appropriate concentrations of NMDG. Cl^−-activation kinetics was analysed by studying the uptake rates in the presence of varying concentrations of Cl^− (2.5-100 mM) in the uptake buffer with Na^+ concentration kept constant at 140 mM. This was done by replacing NaCl with appropriate concentrations of sodium gluconate. Uptake data for Na^+- and Cl^−-activation kinetics were analysed using the Hill equation, and values for K0.5 for Na^+ and Cl^− and for the Hill coefficient (h) were determined by linear and non-linear regression methods. A commercially available software program (Sigma Plot, version 6.0; SPSS) was used for this purpose. Substrate specificity of the uptake process was evaluated by monitoring the effects of unlabelled amino acids (5 mM) on the uptake of radiolabelled glycine or D-serine (5 μM: radiolabelled substrate, 0.05 μM; unlabelled substrate, 4.95 μM).
The kinetic nature of inhibition of D-serine uptake by α-methyl-DL-tryptophan was investigated in MCF7 cells by monitoring the uptake at increasing concentrations of D-serine (range, 50-2000 μM) in the absence and presence of 100 μM α-methyl-DL-tryptophan. The kinetic parameters were calculated by linear regression (Eadie-Hofstee plots) and the values were confirmed by non-linear regression.
We employed a similar experimental strategy to detect specifically the transport function of ATB^0,+ in the remaining seven cell lines. […] We also investigated the effect of α-methyl-DL-tryptophan on D-serine uptake in MCF7 cells.

[1] abbreviates: α-methyl-DL-tryptophan 100 μM, MCF7 cells.

The IC50 is the midpoint of a concentration-inhibition curve. With `Cn1cc(CC(N)C(=O)O)c2ccccc21` (racemic) [1-methyl-DL-tryptophan], the “inhibition of ATB^0,+-specific glycine uptake” value against mouse ATB^0,+ is “inhibited”. The IC50 at ATB^0,+ in MCF7 cells (MCF7 cells) came out at 221 ± 40 µM.
`CC(N)(Cc1c[nH]c2ccccc12)C(=O)O` (racemic) [α-methyl-DL-tryptophan]: at mouse ATB^0,+, the “inhibition of ATB^0,+-specific glycine uptake” value was “inhibited”. For the same compound, the “kinetic nature of inhibition of D-serine uptake” value at ATB^0,+ in MCF7 cells (100 μM blocker, D-serine 50-2000 μM, Eadie-Hofstee) is on record as “competitive”. At ATB^0,+ in MCF7 cells (setting [1]), the “Kt for D-serine uptake in the presence of blocker” value was determined as 869 ± 52 µM and the “Vmax for D-serine uptake in the presence of blocker” value is reported as 33.3±1.4 nmol/mg of protein per 15 min.
Regarding `Cn1cc(C[C@@H](N)C(=O)O)c2ccccc21` [1-methyl-D-tryptophan], the IC50 against mouse ATB^0,+ turned out to be 780 ± 225 µM; on ATB^0,+ in MCF7 cells (MCF7 cells) it was 1580 ± 180 µM.
In the case of `Cn1cc(C[C@H](N)C(=O)O)c2ccccc21` [1-methyl-L-tryptophan], the IC50 came out at 23 ± 5 µM against mouse ATB^0,+ and 86 ± 11 µM at ATB^0,+ in MCF7 cells (MCF7 cells). The “potency of L-isomer relative to D-isomer as inhibitor of ATB^0,+-mediated glycine uptake” value on mouse ATB^0,+ (1-methyl-L-tryptophan versus 1-methyl-D-tryptophan) was “at least 35 fold”. At ATB^0,+ in MCF7 cells (D-serine uptake, MCF7 cells), the “IC50 of L-isomer lower compared with D-isomer” value is “at least 15 fold”.
